# Laboratory results reported in patent US4156011A, “Sulphur- and oxygen-containing diaryl compounds” (priority 1974, dated 1979).
# Where a name gives a salt, the structure may show the parent alone. Read-outs that look alike come from different tables or passages of the source.
# Key:
# [1] = Clinical tests in man; type: in vivo; conditions: for treatment of hyperlipidaemia: man
# Description: The clinical tests have made it possible to confirm the pharmacological tests. Thus, in man, CRL 40,293 (Example 23) in the form of gelatine-coated pills containing 400 mg of active ingredient administered at the rate of 2 such pills twice daily has given good results in the treatment of circulatory complaints and especially of lipid disturbances.
# CRL 40,386 (Example 8) has been used in man for the treatment of hyperlipidaemia in the form of gelatine-coated pills each containing 300 mg of active ingredient at the rate of 2 to 6 such pills per day.
# [2] = Reduction of lipids and cholesterol in rats treated orally; type: in vivo; conditions: for inhibition in vivo at 50 mg/kg / inhibition in vivo at 20 mg/kg: Rattus norvegicus; for inhibition in vivo at 50 mg/kg: 96 h, oral 50 mg/kg; for inhibition in vivo at 20 mg/kg: 72 h, oral 20 mg/kg, 3 days
# [3] = tested on: blood platelet aggregation; test: Anti-aggregation action in rats (graded / in words); type: in vivo; design: key to Anti-aggregation action: -: zero activity; +: significant activity; ++: intense activity; +++: very intense activity
# [4] = Hypo-lipidaemic and hypo-cholesterolaemic action of other products (Table V); type: in vivo, rats; conditions: Rattus norvegicus, 96 h; for change in vivo at 100 mg/kg: oral 100 mg/kg for 4 days; for change in vivo at 200 mg/kg: oral 200 mg/kg for 4 days; for change in vivo at 10 mg/kg: oral 10 mg/kg for 4 days
# Text: The results of the anti-aggregation test and of the hypo-[…] action and hypo-cholesterolaemic action tests of other products of the invention have been […] Table V which follows, the code used being the following (for each dose shown): […]
# [5] = Solubility of the isolated product
# [6] = tested on: platelets (aggregation induced by collagen); test: Anti-aggregation action, platelet aggregation induced by collagen; type: in vivo, male Wistar rats; conditions: oral 100 mg/kg, 4 days; collagen/acetic acid diluted 1/10
# Description: (a) by collagen: the inhibition of aggregation (which corresponds to the % transmission), the latency period and the speed; and
# (§1) In Table IV which follows have been shown the results relating to the anti-aggregation action of some products on the blood of male Wistar rats, the aggregating agents used being collagen/acetic acid diluted 1/10, and ADP at 1 μM.
# [7] = tested on: platelets (aggregation induced by ADP); test: Anti-aggregation action, platelet aggregation induced by ADP; type: in vivo, male Wistar rats; conditions: oral 100 mg/kg, 4 days; for change in aggregation, ADP transmission: ADP at 1 μM
# Description: (b) by ADP: the inhibition of aggregation (that is to say the % transmission).
# as §1
# [8] = capsules or gelatine-coated pills of 500 mg, 2 to 4 per day
# [9] = read-out: Total lipids (change)
# [10] = tablet of 250 to 500 mg, to prevent cardiovascular accidents, especially coronary insufficiency
smiles,measurement,setting,value
"CC(COC(=O)COc1ccc(Sc2ccc(Cl)cc2)cc1)SCCCCCCCCCCSC(C)COC(=O)COc1ccc(Sc2ccc(Cl)cc2)cc1 (racemic) [CRL 40,389, (±)-2,15-Dimethyl-3,14-dithia-1,16-hexadecyl di-[p-(p-chlorophenylthio)-phenoxy-acetate]]",tolerance in man,[1]; [8],well tolerated
same,treatment of hyperlipidaemia,[1]; [8],efficient
same,inhibition in vivo at 50 mg/kg,"[2]; 4 days, read-out: reduction in the cholesterol",35%
same,inhibition in vivo at 50 mg/kg,"[2]; 4 days, read-out: reduction in the lipids",35%
"O=C(O)COc1ccc(Oc2ccc(Cl)cc2)cc1 [CRL 40,333, 4-(4-Chlorophenoxy)-phenoxyacetic acid]",Anti-aggregation action,[3]; oral 100 mg/kg for 4 days,++
same,change in vivo at 100 mg/kg,[4]; read-out: Cholesterol (change),-20%
same,change in vivo at 100 mg/kg,[4]; [9],-24%
same,solubility in water (in words),[5]; water,insoluble in water
"CC(CO)Sc1ccc(Oc2ccc(Cl)cc2)cc1 (racemic) [CRL 40,282, (±)-2-[4-(4-Chlorophenoxy)-phenylthio]-1-propanol]",Anti-aggregation action,[3]; oral 100 mg/kg for 4 days,+
same,solubility in water (in words),[5]; water,water-insoluble
"CC(C)(O)COc1ccc(Oc2ccc(Cl)cc2)cc1 [CRL 40,332, 1-[4-(4-Chlorophenoxy)-phenoxy]-2-methyl-2-propanol]",Anti-aggregation action,[3]; oral 100 mg/kg for 4 days,+
same,solubility in water (in words),[5]; water,insoluble in water
"CCN(CC)CCNC(=O)COc1ccc(Oc2ccc(Cl)cc2)cc1.Cl [CRL 40,334, N-(2-Diethylaminoethyl)-4-(4-chlorophenoxy)-phenoxy-acetamide hydrochloride]",Anti-aggregation action,[3]; oral 100 mg/kg for 4 days,+++
same,change in vivo at 100 mg/kg,[4]; read-out: Cholesterol (change),-17%
same,change in vivo at 100 mg/kg,[4]; [9],-17%
same,solubility in water (in words),[5]; water,soluble in water
"CC(COC(=O)C(C)(C)Sc1ccc(Oc2ccc(Cl)cc2)cc1)SCCCCCCCCCCSC(C)COC(=O)C(C)(C)Sc1ccc(Oc2ccc(Cl)cc2)cc1 (racemic) [CRL 40,414, (±)-2,15-Dimethyl-3,14-dithia-1,16-hexadecyl di-{2-[p-(p-chlorophenoxy)-phenylthio]-2-methylpropionate}]",treatment of hyperlipidaemia,"[1]; gelatine-coated pills of 300 mg, 3 per day",used with success
same,reduction in the (total) lipids,"[2]; oral 100 mg/kg, 4 days",12%
"CC(C)(CNCCO)Oc1ccc(Sc2ccc(Cl)cc2)cc1 [CRL 40,238, N-Hydroxyethyl-4-(4-chlorophenylthio)-phenoxy-isobutylamine hydrochloride]","change in aggregation, collagen, latency period",[6],+18%
same,"change in aggregation, collagen, speed",[6],-52%
same,"change in aggregation, collagen, transmission",[6],-47%
same,"change in aggregation, ADP transmission",[7],-46%
same,anti-aggregation activity (in words),[3]; results of Table IV,the most interesting amongst them
same,solubility in water (in words),[5]; water,insoluble in water
"CC(C)(COS(C)(=O)=O)Oc1ccc(Oc2ccc(Cl)cc2)cc1 [CRL 40,312, 4-(4-Chlorophenoxy)-phenoxy-isobutyl mesylate]",Anti-aggregation action,[3]; oral 100 mg/kg for 4 days,+
same,solubility in water (in words),[5]; water,insoluble in water
"Clc1ccc(Oc2ccc(OCC3=NCCN3)cc2)cc1 [CRL 40,322, 2-[4-(4-Chlorophenoxy)-phenoxy]-methyl-2-imidazoline hydrochloride]",Anti-aggregation action,[3]; oral 100 mg/kg for 4 days,+
same,solubility in hot water (in words),"[5]; hot water, hydrochloride",soluble in hot water
"CC(C)(Sc1ccc(Sc2ccc(Cl)cc2)cc1)C(=O)OCCSCCCCCCCCCCSCCOC(=O)C(C)(C)Sc1ccc(Sc2ccc(Cl)cc2)cc1 [CRL 40,402, 3,14-Dithia-1,16-hexadecyl di-{2-[p-(p-chlorophenylthio)-phenylthio]-2-methylpropionate}]",inhibition at 100 mg/kg,"[7]; Rattus norvegicus, Platelet, 96 h, read-out: inhibition of transmission (ADP test)",25%
same,inhibition in vivo at 20 mg/kg,[2]; read-out: reduction in the cholesterol,14%
same,inhibition in vivo at 20 mg/kg,[2]; read-out: reduction in the lipids,17%
same,cholesterol content and lipids content (in words),"[2]; oral 10, 20 and 50 mg/kg, 3 to 5 days",a reduction in the cholesterol content and lipids content is observed
"CCN(CC)CCOc1ccc(Oc2ccc(Cl)cc2)cc1.Cl [CRL 40,330, N,N-Diethyl-2-[4-(4-chlorophenoxy)-phenoxy]-ethylamine hydrochloride]",Anti-aggregation action,[3]; oral 100 mg/kg for 4 days,+
same,change in vivo at 100 mg/kg,[4]; read-out: Cholesterol (change),-13%
same,change in vivo at 100 mg/kg,[4]; [9],-13%
"OCCNCCSc1ccc(Oc2ccc(Cl)cc2)cc1 [CRL 40,274, N-Hydroxyethyl-2-[4-(4-chlorophenoxy)phenylthio]-ethylamine]","change in aggregation, collagen, speed",[6],0%
same,"change in aggregation, ADP transmission",[7],-20%
same,solubility in water (in words),[5]; water,insoluble in water
"CC(CNCCO)Sc1ccc(Oc2ccc(Cl)cc2)cc1 (racemic) [CRL 40,283, (±)-N-Hydroxyethyl-2-[4-(4-chlorophenoxy)-phenylthio]-1-propylamine]",Anti-aggregation action,[3]; oral 200 mg/kg for 4 days,+
same,solubility in aqueous hydrochloric acid solution (in words),"[5]; aqueous hydrochloric acid, pH 3 to pH 7",soluble in an aqueous hydrochloric acid solution at between pH 3 and pH 7
"CC(CO)Oc1ccc(Oc2ccc(Cl)cc2)cc1 (racemic) [CRL 40,300, (±)-2-[4-(4-Chlorophenoxy)-phenoxy]-1-propanol]",Anti-aggregation action,[3]; oral 100 mg/kg for 4 days,+
same,solubility in water (in words),[5]; water,insoluble in water
"CC(COC(=O)C(C)(C)Oc1ccc(Sc2ccc(Cl)cc2)cc1)SCCCCCCCCCCSC(C)COC(=O)C(C)(C)Oc1ccc(Sc2ccc(Cl)cc2)cc1 (racemic) [CRL 40,387, (±)-2,15-Dimethyl-3,14-dithia-1,16-hexadecyl di-{2-[p-(p-chlorophenylthio)-phenoxy]-2-methylpropionate}]",effect on the blood platelet aggregation,"[3]; 10, 20 and 50 mg/kg orally",no effect
"O=C(CSc1ccc(Oc2ccc(Cl)cc2)cc1)NCCO [CRL 40,272, N-Hydroxyethyl-4-(4-chlorophenoxy)-phenylthioacetamide]","change in aggregation, collagen, latency period",[6],+16%
same,"change in aggregation, collagen, transmission",[6],0%
same,"change in aggregation, ADP transmission",[7],-20%
"Cl.NCCOc1ccc(Oc2ccc(Cl)cc2)cc1 [CRL 40,317, 2-[4-(4-Chlorophenoxy)-phenoxy]-ethylamine hydrochloride]",Anti-aggregation action,[3]; oral 100 mg/kg for 4 days,+
same,change in vivo at 100 mg/kg,[4]; [9],-37%
same,tolerance in man,[1]; [10],well tolerated
same,solubility in water (in words),[5]; water,soluble in water
"Cl.OCCNCCOc1ccc(Oc2ccc(Cl)cc2)cc1 [CRL 40,295, N-Hydroxyethyl-2-[4-(4-chlorophenoxy)-phenoxy]-1-ethylamine hydrochloride]",Anti-aggregation action,[3]; oral 100 mg/kg for 4 days,+++
same,Anti-aggregation action,[3]; oral 200 mg/kg for 4 days,+++
same,change in vivo at 100 mg/kg,[4]; read-out: Cholesterol (change),-32%
same,change in vivo at 100 mg/kg,[4]; [9],-19%
same,change in vivo at 200 mg/kg,[4]; read-out: Cholesterol (change),-37%
same,change in vivo at 200 mg/kg,[4]; [9],-28%
same,tolerance in man,[1]; [10],well tolerated
same,solubility,[5]; water,200 mg/mL
"CC(C)(Oc1ccc(Sc2ccc(Cl)cc2)cc1)C(=O)OCCSCCCCCCCCCCSCCOC(=O)C(C)(C)Oc1ccc(Sc2ccc(Cl)cc2)cc1 [CRL 40,253, 3,14-Dithia-1,16-hexadecyl di-[4-(4-chlorophenylthio)-phenoxyisobutyrate]]",change in vivo at 10 mg/kg,[4]; read-out: Cholesterol (change),-40%
same,change in vivo at 10 mg/kg,[4]; [9],-40%
same,solubility in water (in words),[5]; water,insoluble in water
"CC(C)(CO)Sc1ccc(Oc2ccc(Cl)cc2)cc1 [CRL 40,276, 4-(4-Chlorophenoxy)-phenylthio-isobutanol]","change in aggregation, collagen, latency period",[6],+25%
same,"change in aggregation, collagen, speed",[6],-13%
same,"change in aggregation, collagen, transmission",[6],-31%
same,"change in aggregation, ADP transmission",[7],-20%
